pIC50: −log10 of the molar value. Residues, ends and D or L forms follow the SMILES beside them. *: point of attachment. Cbz = O=C(OCc1ccccc1)*
Columns and labels:
cellular DUB activity = assay: DUB activity of lysates from treated cells (Ub-AMC, Ub chain disassembly); assay type: cell-based; details: Z138 cells, 5 μM WP1130 or 50 nM bortezomib, by 4 hours
Description: Cells were lysed in ice cold DUB buffer containing 50 mM Tris-HCl, pH 7.5, 0.5% NP-40, 5 mM MgCl2, 150 mM NaCl and 1 mM phenylmethylsulfonylfluoride. Briefly, 5 μg of clarified lysate from untreated or treated cells was incubated with 500 nM Ub-AMC in a 100 μL reaction volume at 37° C. and the release of AMC fluorescence was recorded at ex/em 380/480 using a spectrofluorometer. USP9x was immunoprecipitated from 500 μg of cell lysate and incubated in DUB buffer containing NEM, WP1130 or DMSO in a 100 μL reaction volume for 30 min. The reaction was initiated by the addition of 500 nM Ub-AMC and the release of AMC-fluorescence was recorded.
In vitro disassembly of purified polyubiquitin chains (K-48/K-63 linked) was performed as previously described. Five μg of lysate from untreated or WP1130 treated cells were prepared in DUB buffer and incubated with K48- or K-63 linked chains (1 μg) for 10 min at 37° C. The extent of chain disassembly was assessed by ubiquitin immunoblotting.
Inhibition of cellular deubiquitinases could lead to an increase in high molecular weight ubiquitinated proteins in the absence of proteasome inhibition. […] To directly assess the impact of WP1130 on DUB activity in treated cells, cell lysates from control and treated cells were incubated with ubiquitin-AMC and fluorescence generated as a consequence of substrate cleavage was measured as an indicator of DUB activity.
The effect of WP1130 treatment on in vitro deubiquitination/disassembly of purified K48-linked or K63-linked polyubiquitin chains was evaluated. Lysates from WP1130 treated (2 hr) or untreated cells were incubated with 1 μg of unanchored polyubiquitin chains for 5, 10 and 15 min at 37° C.

ubiquitinated proteins = assay: Ubiquitin immunoblot of cell extracts; assay type: cell-based; details: for ubiquitinated protein levels: CML cells; for accumulation of ubiquitinated proteins: Z138 cells
Description: (§1) Total cell lysates were prepared by boiling and sonicating cell pellets in 1× Laemmli reducing sample buffer. To prepare detergent soluble and insoluble fractions, cells were lysed in cold isotonic lysis buffer [10 mM Tris-HCl (pH 7.5), 0.5% Triton X-100, 150 mM NaCl along with Mini-Complete and PhosSTOP] for 15 min on ice and centrifuged 10 min at 20,000 RCF. The clarified supernatant was used as the detergent soluble cell fraction. The residual pellet was washed and extracted in Laemmli reducing sample buffer and briefly sonicated to derive the detergent insoluble fraction. Equal volumes of cellular lysate or equal protein amounts were electrophoresed on SDS-PAGE gels and transferred to nitrocellulose membranes (Whatmann, Dassel, Germany). Proteins were detected by immunoblotting.
Whole cell lysates were prepared by boiling and sonicating the cell pellets in 1× Laemmli reducing sample buffer. To prepare detergent soluble and insoluble fractions, cells were lysed in cold isotonic lysis buffer [10 mM Tris-HCl (pH 7.5), 0.5% Triton X-100, 150 mM NaCl along with Mini-Complete and PhosSTOP] for 15 min on ice and centrifuged 10 minutes at 20,000 RCF. The clarified supernatant was used as a source of the detergent soluble cell fraction. The detergent insoluble fraction was extracted by the sonication of residual pellet in equal volumes of boiling 1× Laemmli reducing sample buffer. Equal volumes of cellular lysate or equal protein amounts were electrophoresed on SDS-PAGE gels.

Bcr-Abl = Bcr-Abl immunoblot of cell fractions; assay type: cell-based; details: CML cells; WP1130 5 μM, bortezomib 50 nM
[1] = biological target: ubiquitin iso-peptidase activity; details: read-out: IC50, ubiquitin iso-peptidase activity in cells; cited from earlier work
Hsp70 = Hsp70 immunoblot; assay type: cell-based; details: CML cells
BV-173 and BV-173R = assay: Anti-proliferative effects in CML lines; details: BV-173 (WT Bcr-Abl) and BV-173R (T315I)
WDT2 = assay: MTT cell growth and survival; assay type: cell-based; details: WDT2 cell line
Text: (§2) Cancer Res, 2010. 70(22): p. […] Blood, 2011. 117(11): p. […] Biochem Pharmacol, 2011. 82(4): p. […] Blood, 2007. 109(8): p. 3470-8.

20S proteasome = biological target: T1, 20S proteasome (Homo sapiens, UniProt P28074); assay: Proteasome activity assay in treated cells (Suc-LLVY-AMC); assay type: cell-based; details: 5 μM, 2 hr
T1 construct: endogenous in cells; host or cells: K562 and other CML lines, Z138
Description: (§3) Fluorogenic substrate Suc-LLVY-AMC was used to assay for the chymotryptic-like activity of the 20S proteasome. To assay for in vivo proteasome inhibition cells were treated with WP1130 (5 μM) or MG132 (5 μM) for 2 hours and lysed in ice-cold lysis buffer (50 mM HEPES, pH 7.5, 5 mM EDTA, 150 mM NaCl, 1% Triton X-100). Lysates were clarified by centrifugation at 20,000 RCF for 10 min and equal amounts of protein from each sample were incubated at 37° C. with 100 μM fluorogenic substrate. To assay for direct inhibition of the 20S proteasome in vitro, purified 20S human proteasome (200 ng) was incubated with WP1130 (5 μM), MG132 (5 μM) or Lactacystin (5 μM) for 30 min at 37° C. before addition of the substrates. Fluorescence intensity was measured using a spectrophotometer at excitation 360 nm & emission 460 nm. Assays were performed in triplicate, and statistical significance was determined with a paired Student's t test.

20S human proteasome = biological target: T2, 20S human proteasome (Homo sapiens, UniProt P28074); assay: Proteasome activity assay on purified 20S proteasome; assay type: biochemical; details: 5 μM
T2 construct: purchased BostonBiochem
Description: as §3

DUB activity = assay: Western / HA-UbVS labeling of DUB activity in intact cells; assay type: cell-based; details: for DUBs labeling (HA-UbVS): Z138 treated cells, AG490 250 μM
Description: (§4) To assay for changes in activity of cellular deubiquitinase enzymes, leukemic cells were lysed in DUB buffer (50 mM Tris pH 7.4, 5 mM MgCl2, 150 mM NaCl) for 10 min at 4° C. The lysates were centrifuged at 20,000 RCF for 10 min and the supernatant was used for DUB labeling. Equal amounts of lysate were incubated with 500 ng of HA-UbVs for 1 hr at room temperature, followed by boiling in reducing sample buffer and resolving by SDS-PAGE. HA immunoblotting was used to detect DUB labeling.
as §4, with “Z138 and HEK293” for “leukemic”, “RFC” for “RCF”, “SDS-PAGE. After protein transfer to nitrocellulose membranes,” for “SDS-PAGE.”
as §2

Murine norovirus (MNV) = assay: Murine norovirus plaque assay; assay type: cell-based; details: MNV-1 (MOI 5), RAW 264.7, 20 μM, 8 and 12 hours postinfection
Description: Viral titers were determined by plaque assay.
Cells were treated with IFN-β as a positive anti-viral control.

tumor cell = assay: Tumor cell proliferation; assay type: cell-based
Text: WP1051 and WP1052 represent two earlier chemical analogues of WP1130. […] This was unexpected as WP1051 and WP1052 are chemically identical but structurally distinct isomers. Since apoptosis/anti-proliferative properties of WP1130 are related to its ability to suppress cellular DUBs and induce accumulation of ubiquitinated proteins, WP1051 and 1052 were investigated whether they can affect protein ubiquitination and DUB activity.

K562 = assay: MTT cell growth and survival; assay type: cell-based; details: K562 cell line
Text: as §2

pStat5 = assay: Western blot of pStat5; assay type: cell-based; details: SET, HEL cell lines
Description: as §1, §2

USP9X = assay: Western / HA-UbVS labeling of USP9X in intact cells or lysates; assay type: cell-based; details: Z138 treated cells

T1 sequence (P28074 60-263): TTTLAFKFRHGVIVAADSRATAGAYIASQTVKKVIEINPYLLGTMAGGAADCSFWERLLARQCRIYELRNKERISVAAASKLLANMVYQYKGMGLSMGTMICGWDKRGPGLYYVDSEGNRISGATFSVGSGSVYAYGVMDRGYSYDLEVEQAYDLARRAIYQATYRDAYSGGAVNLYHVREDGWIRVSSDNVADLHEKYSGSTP

For CC(C)C[C@H](NC(=O)[C@H](Cc1ccccc1)NC(=O)c1cnccn1)B(O)O [Bortezomib, reference compound], the “reduction of DUB activity (ubiquitin-AMC)” value (cellular DUB activity) was “no change”, the ubiquitinated protein levels (ubiquitinated proteins) was “elevated” and the “Bcr-Abl trafficking from detergent soluble to insoluble cell fraction” value (Bcr-Abl) was “no effect”.
In the case of COc1cc(/C=C/C(=O)CC(=O)/C=C/c2ccc(O)c(OC)c2)ccc1O [curcumin], the pIC50 [1] is listed as 4.00 to 4.10.
With C=CCNC1=C2C[C@@H](C)C[C@H](OC)[C@H](O)[C@@H](C)/C=C(\C)[C@H](OC(N)=O)[C@@H](OC)/C=C\C=C(/C)C(=O)NC(=CC1=O)C2=O [Compound 17-AAG, 17-Allylamino-17-demethoxygeldanamycin, reference compound] the ubiquitinated protein levels (ubiquitinated proteins) was “no effect”, the Hsp70 protein levels (Hsp70) was “induction of Hsp70” and the anti-proliferative effects (BV-173 and BV-173R) was “anti-proliferative effects”.
With CCCC(NC(=O)/C(C#N)=C/c1cccc(Br)n1)c1ccc(O)cc1 (stereo not shown) [Compound 7, (E)-3-(6-Bromopyridin-2-yl)-2-cyano-N-(1-(4-hydroxyphenyl)butyl)acrylamide] the “MTT Activity relative to WP1130” value (WDT2) was “More sensitive”.
For CC(C)C[C@@H](C=O)NC(=O)[C@H](CC(C)C)NC(=O)[C@H](CC(C)C)NC(=O)OCc1ccccc1 [MG-132, reference compound] (Cbz-Leu-Leu-Leu-aldehyde), the “20S proteasome chymotryptic-like activity in intact cells (in vivo)” value (20S proteasome) was “substantially inhibited” and the “purified 20S proteasome activity (in vitro)” value (20S human proteasome) was “substantially inhibited”.
For C=C1C(=O)C2=CC1CCC(=O)C1(C)CCC(OC(C)=O)C(C)(C)C1CC2O (stereo not shown) [shikoccin], the pIC50 [1] is given as about 4.82.
For C[C@H](NC(=O)/C(C#N)=C/c1ccc(O)c([N+](=O)[O-])c1)c1ccccc1 [WP1052], the “DUBs labeling (HA-UbVS)” value (DUB activity) was “no DUB inhibition”, the “viral titers by plaque assay” value (Murine norovirus (MNV)) was “not” and the “accumulation of ubiquitinated proteins” value (ubiquitinated proteins) was “failed to show any affect”. The “suppression of tumor cell proliferation” value (tumor cell) was “failed to show any anti-tumor properties”.
For CCC[C@H](NC(=O)C(C#N)C(SCC(O)CO)c1cccc(Br)n1)c1ccccc1 (stereo partly drawn) [Compound 20, 3-(6-Bromopyridin-2-yl)-2-cyano-3-((2,3-dihydroxypropyl)thio)-N—((S)-1-phenylbutyl)propanamide], the “MTT Activity relative to WP1130” value (K562) was “More sensitive”, the “Western Targets: DUB activity” value (DUB activity; SET, HEL cell lines) was “no effect” and the “Western Targets: pStat5” value (pStat5) was “pStat5: down-regulated; DUB”.
For CCCCC[C@H](O)C/C=C1/C(=O)C=C[C@@H]1C/C=C\CCCC(=O)O [D12-prostaglandin J2], the pIC50 [1] is listed as about 4.52.
In the case of O=C(C=Cc1ccccc1)C=Cc1ccccc1 [dibenzylideneacetone], the pIC50 [1] is listed as 4.40 to 4.70.
In the case of CCCC(NC(=O)/C(C#N)=C/c1cccc(Br)n1)c1ccc(OCOC)cc1 (stereo not shown) [Compound 6, (E)-3-(6-Bromopyridin-2-yl)-2-cyano-N-(1-(4-(methoxymethoxy)phenyl)butyl)acrylamide], the “MTT Activity relative to WP1130” value (WDT2) was “More sensitive”.
With N#C/C(=C/c1ccc(O)c(O)c1)C(=O)NCc1ccccc1 [AG490, reference compound] the “DUBs labeling (HA-UbVS)” value (DUB activity) was “no change” and the “accumulation of ubiquitinated proteins” value (ubiquitinated proteins) was “did not induce a change”.
In the case of C[C@H](NC(=O)/C(C#N)=C/c1ccc([N+](=O)[O-])c(O)c1)c1ccccc1 [WP1051], the “HA-UbVS labeling of USP9x” value (USP9X) was “could suppress the activity”, the “viral titers by plaque assay” value (Murine norovirus (MNV)) was “reduced viral titers” and the “accumulation of ubiquitinated proteins” value (ubiquitinated proteins) was “induce accumulation of ubiquitinated proteins in a dose-dependent fashion”. For the same compound, the “suppression of tumor cell proliferation” value (tumor cell) was “effective in suppressing tumor cell proliferation”.
With CCC(NC(=O)/C(C#N)=C/c1cccc(Br)n1)c1ccc(OCCOC)cc1 (stereo not shown) [Compound 17, (E)-3-(6-Bromopyridin-2-yl)-2-cyano-N-(1-(4-(2-methoxyethoxy)phenyl)propyl)-acrylamide] the “MTT Activity relative to WP1130” value (K562) was “Less sensitive”.

From patent US8809377B2, “Deubiquitinase inhibitors and methods for use of the same” (The Regents of the University of Michigan, priority 2010, dated 2014)
